Data reported in patent US9586951B2 (FUJIFILM Corporation, priority 2013, dated 2017).

Target: T1, ATM (Homo sapiens, UniProt Q13315)
T1 construct: detecting phosphorylation of Chk2 in a human non-small cell lung cancer cell line NCI-H460 (ATCC company); host or cells: NCI-H460 human non-small cell lung cancer cells
Assay: ATM inhibition test (phosphorylation of Chk2 generated by ionizing radiation, AlphaScreen SureFire)
Type: cell-based
Conditions: phosphorylated Chk2 in NCI-H460 cells, ionizing radiation 8Gy, 1 hour after test compound treatment; read-out: ATM inhibitory activity
Summary of the method: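 NCI-H460 cells, compound 1 h pre-treatment, 8Gy IR, further 1 h at 37° C in 5% CO2. Read-out: phospho-Chk2 via AlphaScreen SureFire. % inhibition relative to IR-induced signal window (irradiated vs non-irradiated drug-free wells).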

T1 sequence (Q13315 whole entry): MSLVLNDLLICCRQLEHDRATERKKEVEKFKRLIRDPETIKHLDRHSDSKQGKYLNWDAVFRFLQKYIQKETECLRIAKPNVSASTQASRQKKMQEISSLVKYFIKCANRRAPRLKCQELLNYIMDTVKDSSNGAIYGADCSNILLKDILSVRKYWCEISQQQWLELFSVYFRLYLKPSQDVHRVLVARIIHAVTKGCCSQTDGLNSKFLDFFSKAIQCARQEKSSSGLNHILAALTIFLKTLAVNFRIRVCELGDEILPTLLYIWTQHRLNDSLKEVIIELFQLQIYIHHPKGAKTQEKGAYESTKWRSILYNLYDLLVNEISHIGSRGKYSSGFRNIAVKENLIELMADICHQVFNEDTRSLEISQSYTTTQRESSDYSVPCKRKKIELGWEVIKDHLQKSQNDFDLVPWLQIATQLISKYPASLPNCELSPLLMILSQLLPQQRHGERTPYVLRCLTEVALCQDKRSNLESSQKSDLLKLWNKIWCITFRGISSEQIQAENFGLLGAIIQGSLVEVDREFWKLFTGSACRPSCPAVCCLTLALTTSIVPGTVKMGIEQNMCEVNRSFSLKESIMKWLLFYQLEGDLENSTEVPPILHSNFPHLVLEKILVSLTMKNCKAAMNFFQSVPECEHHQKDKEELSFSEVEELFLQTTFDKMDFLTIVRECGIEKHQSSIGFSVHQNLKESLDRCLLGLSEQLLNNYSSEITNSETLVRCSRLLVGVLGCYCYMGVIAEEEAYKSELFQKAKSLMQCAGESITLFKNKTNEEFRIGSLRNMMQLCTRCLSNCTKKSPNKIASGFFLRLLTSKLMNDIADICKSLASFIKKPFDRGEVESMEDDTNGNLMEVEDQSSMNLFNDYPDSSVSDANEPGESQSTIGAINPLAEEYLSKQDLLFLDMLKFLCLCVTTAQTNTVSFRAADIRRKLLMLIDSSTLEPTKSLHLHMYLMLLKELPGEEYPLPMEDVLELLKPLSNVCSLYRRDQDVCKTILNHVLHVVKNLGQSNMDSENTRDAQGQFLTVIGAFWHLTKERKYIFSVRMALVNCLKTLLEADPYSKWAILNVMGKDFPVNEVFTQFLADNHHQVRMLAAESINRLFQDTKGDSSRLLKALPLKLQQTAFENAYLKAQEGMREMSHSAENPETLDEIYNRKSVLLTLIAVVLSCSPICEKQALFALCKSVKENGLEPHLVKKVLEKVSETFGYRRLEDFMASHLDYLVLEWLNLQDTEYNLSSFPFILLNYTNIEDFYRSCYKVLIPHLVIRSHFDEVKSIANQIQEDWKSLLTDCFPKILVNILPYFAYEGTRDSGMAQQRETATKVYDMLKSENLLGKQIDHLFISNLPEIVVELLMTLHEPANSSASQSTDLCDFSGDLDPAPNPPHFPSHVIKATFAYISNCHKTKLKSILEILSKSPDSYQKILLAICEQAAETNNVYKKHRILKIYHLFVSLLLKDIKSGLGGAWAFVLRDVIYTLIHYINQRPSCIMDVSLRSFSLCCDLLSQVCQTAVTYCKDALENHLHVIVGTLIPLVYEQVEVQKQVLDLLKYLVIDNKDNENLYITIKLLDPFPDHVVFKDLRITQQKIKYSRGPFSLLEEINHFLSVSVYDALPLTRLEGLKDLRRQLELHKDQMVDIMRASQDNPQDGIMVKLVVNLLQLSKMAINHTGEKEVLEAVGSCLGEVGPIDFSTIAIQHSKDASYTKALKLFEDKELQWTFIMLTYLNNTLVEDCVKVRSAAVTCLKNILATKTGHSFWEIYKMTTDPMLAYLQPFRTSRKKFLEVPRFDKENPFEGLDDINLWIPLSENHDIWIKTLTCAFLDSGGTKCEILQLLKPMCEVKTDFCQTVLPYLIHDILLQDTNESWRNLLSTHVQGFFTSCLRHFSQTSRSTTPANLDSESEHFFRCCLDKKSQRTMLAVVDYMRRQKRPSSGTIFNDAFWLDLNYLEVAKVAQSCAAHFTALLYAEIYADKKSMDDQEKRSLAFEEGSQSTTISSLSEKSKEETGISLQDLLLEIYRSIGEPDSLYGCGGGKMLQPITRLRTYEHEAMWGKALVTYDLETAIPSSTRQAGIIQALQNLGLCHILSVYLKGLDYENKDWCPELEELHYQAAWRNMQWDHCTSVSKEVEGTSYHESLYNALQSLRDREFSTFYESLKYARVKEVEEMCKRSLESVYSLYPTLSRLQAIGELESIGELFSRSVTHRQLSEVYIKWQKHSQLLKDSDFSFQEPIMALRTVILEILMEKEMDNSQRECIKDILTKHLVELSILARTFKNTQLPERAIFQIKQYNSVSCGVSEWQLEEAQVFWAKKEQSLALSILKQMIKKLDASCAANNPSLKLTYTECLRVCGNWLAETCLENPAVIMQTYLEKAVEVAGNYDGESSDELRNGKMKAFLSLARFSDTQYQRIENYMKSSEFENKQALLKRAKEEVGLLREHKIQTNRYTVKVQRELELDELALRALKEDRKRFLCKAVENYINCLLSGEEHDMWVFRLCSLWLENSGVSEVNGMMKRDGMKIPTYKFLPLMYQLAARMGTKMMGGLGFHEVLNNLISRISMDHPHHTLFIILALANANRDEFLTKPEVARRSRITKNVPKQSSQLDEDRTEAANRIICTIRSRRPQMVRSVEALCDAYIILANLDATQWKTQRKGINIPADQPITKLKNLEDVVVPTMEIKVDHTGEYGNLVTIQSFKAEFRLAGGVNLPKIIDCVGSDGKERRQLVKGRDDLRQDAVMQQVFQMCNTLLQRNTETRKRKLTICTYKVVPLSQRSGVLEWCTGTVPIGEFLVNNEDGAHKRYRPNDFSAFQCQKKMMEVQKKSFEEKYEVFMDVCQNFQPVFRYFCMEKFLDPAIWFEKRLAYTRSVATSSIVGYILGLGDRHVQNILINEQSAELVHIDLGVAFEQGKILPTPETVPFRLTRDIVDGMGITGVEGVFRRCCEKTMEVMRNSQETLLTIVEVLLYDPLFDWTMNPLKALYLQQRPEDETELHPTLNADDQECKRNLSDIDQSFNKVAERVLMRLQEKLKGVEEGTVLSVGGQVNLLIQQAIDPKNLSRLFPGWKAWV

| IC50 [µM] | Compound |
| --- | --- |
| < 0.1 | Cc1ccc(C(Nc2ccc3c(c2)Sc2cccc(-c4cc(N5CCOCC5)cc(=O)[nH]4)c2S3)[C@H]2CCN(C)C2)nc1 (single isomer, unassigned) [Example 1-56-15] |
| < 0.1 | COCCN(C)CCC(Nc1ccc2c(c1)Sc1cccc(-c3cc(N4CCOCC4)cc(=O)[nH]3)c1S2)c1ccc(C)cn1 (single isomer, unassigned) [Example 10-3-3, 6-(7-((3-((2-Methoxyethyl) (methyl)amino)-1-(5-methylpyridin-2-yl)propyl)amino)thiarnthren-l-yl)-4-morpholino pyridin-2(1H)-one] |
| 0.1 to 0.5 | Cc1cnc(C(CCN(C)C)CNc2ccc3c(c2)Sc2cccc(-c4cc(N5CCOCC5)cc(=O)[nH]4)c2S3)cn1 (stereo not shown) [Example 12-3, 6-(7-((4-(Dimethylamino)-2-(5-methylpyrazin-2-yl)butyl)amino)thianthren-1-yl)-4-morpholinopyridin-2(1H)-one] |
| 0.5 to 2 | CC(C)(C)NCCNc1ccc2c(c1)Sc1cccc(-c3cc(N4CCOCC4)cc(=O)[nH]3)c1S2 [Example 1-10-13, 6-(7-((2-(tert-Butylamino)ethyl)amino)thianthren-1-yl)-4-morpholino pyridin-2 (1H)-one] |
| 0.1 to 0.5 | CC(CN1CCN(C(C)C)CC1)Nc1ccc2c(c1)Sc1cccc(-c3cc(N4CCOCC4)cc(=O)[nH]3)c1S2 (stereo not shown) [Example 1-13-14, 6-(7-((1-(4-Isopropylpiperazin-1-yl)propan-2-yl)amino)thianthren-1-yl)-4-morpholino pyridin-2(1H)-one] |
| 0.1 to 0.5 | Cc1cccc(C(CCO)Nc2ccc3c(c2)Sc2cccc(-c4cc(N5CCOCC5)cc(=O)[nH]4)c2S3)n1 (stereo not shown) [Example 1-34-5, 6-(7-((3-Hydroxy-1-(6-methylpyridin-2-yl)propyl)amino)thianthren-1-yl)-4-morpholino pyridin-2(1H)-one] |
| 0.1 to 0.5 | Cc1cccc(C(C)Nc2ccc3c(c2)Cc2ccnc(-c4cc(N5CCOCC5)cc(=O)[nH]4)c2O3)n1 (stereo not shown) [Example 2-42-6, 6-(7-((1-(6-Methylpyridin-2-yl)ethyl)amino)-5H-chromeno[2,3-c]pyridin-1-yl)-4-morpholinopyridin-2(1H)-one] |
| 0.1 to 0.5 | Cc1cnc(C(COCCN(C)C)Nc2ccc3c(c2)Sc2cccc(-c4cc(N5CCOCC5)cc(=O)[nH]4)c2S3)nc1 (stereo not shown) [Example 1-12-104, 6-(7-((2-(2-(Dimethylamino)ethoxy)-1-(5-methylpyrimidin-2-yl)ethyl)amino)thianthren-1-yl)-4-morpholino pyridin-2(1H)-one] |
| 0.1 to 0.5 | CC(C)Nc1cncc(CNc2ccc3c(c2)Sc2cccc(-c4cc(N5CCOCC5)cc(=O)[nH]4)c2O3)c1 [Example 4-8-26] |
| 0.1 to 0.5 | COC[C@H](CN1[C@H](C)CCC[C@@H]1C)Nc1ccc2c(c1)Sc1cccc(-c3cc(N4CCOCC4)cc(=O)[nH]3)c1S2 [Example 1-46-13, 6-(7-(((S)-1-((2R,6S)-2,6- Dimethylpiperidin-1-yl)-3-methoxypropan-2-yl)amino)thianthren-1-yl)-4-morpholino pyridin-2(1H)-one] |
| 0.1 to 0.5 | COc1ccnc(C(C)Nc2ccc3c(c2)Cc2cccc(-c4cc(N5CCOCC5)cc(=O)[nH]4)c2O3)n1 (stereo not shown) [Example 2-14-56, 6-(7-((1-(4-Methoxypyrimidin-2-yl)ethyl)amino)-9H-xanthen-4-yl)-4-morpholino pyridin-2(1H)-one] |
| 0.1 to 0.5 | O=c1cc(N2CCOCC2)cc(-c2cccc3c2Oc2ccc(NCc4cccc(C5CC5)n4)cc2S3)[nH]1 [Example 4-4-21, 6-(8-(((6-Cyclopropylpyridin-2-yl)methyl)amino)phenoxathiin-4-yl)-4-morpholino pyrdin-2(1H)-one] |
| 0.1 to 0.5 | COc1cc(CNc2ccc3c(c2)Cc2cccc(-c4cc(N5CCOCC5)cc(=O)[nH]4)c2O3)ccn1 [Example 2-22-1, 6-(7-(((2-methoxypyridin-4-yl)methyl)amino)-9H-xanthen-4-yl)-4-morpholinopyridin-2(1H)-one] |
| 0.5 to 2 | COCC(=O)N1CCC(Nc2ccc3c(c2)Sc2cccc(-c4cc(N5CCOCC5)cc(=O)[nH]4)c2S3)CC1 [Example 1-28, 6-(7-((1-(2-methoxyacetyl)piperidin-4-yl)amino)thianthren-1-yl)-4-morpholinopyridin-2(1H)-one] |
| 0.1 to 0.5 | Ethyl 6-(((6-(4-morpholino- 6-oxo-1,6-dihydropyridin-2- yl)thianthren-2-yl)amino) methyl)picol [Example 1-12-56] |
| 0.1 to 0.5 | CC(Nc1ccc2c(c1)Cc1cccc(-c3cc(N4CCOCC4)cc(=O)[nH]3)c1O2)c1ccnc(C#N)n1 (stereo not shown) [Example 2-14-58, 4-(1-((5-(4-Morpholino-6-oxo-1,6-dihydropyridin-2-yl)-9H-xanthen-2-yl)amino)ethyl)pyrimidine-2-carbonitrile] |
| 0.1 to 0.5 | O=c1cc(N2CCOCC2)cc(-c2cccc3c2Oc2ccc(NC4CCN(c5ccccn5)CC4)cc2C3)[nH]1 [Example 2-2-27, 4-Morpholino-6-(7-((1-(pyridin-2-yl)piperidin-4-yl)amino)-9H-xanthen-4-yl) pyridin-2(1H)-one] |

| IC50 [µM] | Compound |
| --- | --- |
| 0.5 to 2 | CN(C)[C@H]1CC[C@H](N(C)c2ccc3c(c2)Cc2cccc(-c4cc(N5CCOCC5)cc(=O)[nH]4)c2O3)CC1 [Example 2-10, 6-(7-(((Trans)-4-(dimethylamino)cyclohexyl)(methyl)amino)-9H-xanthen-4-yl)-4-morpholinopyridin-2(1H)-one] |
| 0.1 to 0.5 | Nc1cccc2c1Sc1cccc(-c3cc(N4CCOCC4)cc(=O)[nH]3)c1O2 [Example 4-3, 6-(9-Aminophenoxathiin-4-yl)-4-morpholinopyridin-2(1H)-one] |
| 0.1 to 0.5 | Cn1cc(-c2cncc(CNc3ccc4c(c3)Sc3cccc(-c5cc(N6CCOCC6)cc(=O)[nH]5)c3S4)c2)cn1 [Example 1-12-22, 6-(7-(((5-(1-Methyl-1H-pyrazol-4-yl)pyridin-3-yl)methyl)amino)thianthren-1-yl)-4-morpholino pyridin-2 (1H)-one] |
| 0.1 to 0.5 | CCOC(=O)CNc1ccc2c(c1)Cc1cccc(-c3cc(N4CCOCC4)cc(=O)[nH]3)c1O2 [Example 2-14-71, Ethyl 2-((5-(4-morpholino-6-oxo-1,6-dihydropyridin-2-yl)-9H-xanthen-2-yl)amino) acetate] |
| 0.1 to 0.5 | CC(CCNc1ccc2c(c1)Sc1cccc(-c3cc(N4CCOCC4)cc(=O)[nH]3)c1S2)N1CCOCC1 (stereo not shown) [Example 8-2, 4-Morpholino-6-(7-((3-morpholinobutyl)amino)thianthren-1-yl)pyridin-2(1H)-one] |
| 0.1 to 0.5 | O=c1cc(N2CCOCC2)cc(-c2cccc3c2Oc2ccc(NC4CCN(Cc5cccc(C6CC6)n5)CC4)cc2C3)[nH]1 [Example 2-28-31, 6-(7-((1-((6-Cyclopropylpyridin-2-yl)methyl)piperidin-4-yl)amino)-9H-xanthen-4-yl)-4-morpholino pyridin-2(1H)-one] |
| 0.1 to 0.5 | O=c1cc(N2CCOCC2)cc(-c2cccc3c2Oc2ccc(NCc4cccc(C5CC5)n4)cc2C3)[nH]1 [Example 2-2-68, 6-(7-(((6-Cyclopropylpyridin-2-yl)methyl)amino)-9H-xanthen-4-yl)-4-morpholino pyridin-2(1H)-one] |
| 0.1 to 0.5 | O=c1cc(N2CCOCC2)cc(-c2cccc3c2Oc2ccc(NCc4cnc5c(c4)OCO5)cc2C3)[nH]1 [Example 2-2-30, 6-(7-(([1,3]Dioxolo[4,5-b]pyridin-6-ylmethyl)amino)-9H-xanthen-4-yl)-4-morpholino pyridin-2(1H)-one] |
| 0.1 to 0.5 | Cc1cnc(C(CCN(C)C)Nc2ccc3c(c2)Cc2cccc(-c4cc(=O)cc(N5CCOCC5)o4)c2O3)cn1 (single isomer, unassigned) [Example 12-6, 2-(7-((3-(Dimethylamino)-1-(5-methylpyrazine-2-yl)propyl)amino)-9H-xanthen-4-yl)-6-morpholino-4H-pyran-4-one] |
| 0.1 to 0.5 | O=c1cc(N2CCOCC2)cc(-c2cccc3c2Sc2ccc(NCc4nccs4)cc2S3)[nH]1 [Example 1-12-52, 4-Morpholino-6-(7-((thiazol-2-ylmethyl)amino)thianthren-1-yl) pyridin-2 (1H)-one] |
| 0.1 to 0.5 | O=c1cc(N2CCOCC2)cc(-c2cccc3c2Oc2ccc(NC4CCN(c5cccnc5)CC4)cc2C3)[nH]1 [Example 2-2-28, 4-Morpholino-6-(7-((l-(pyridin-3-yl)piperidin-4-yl)amino)-9H-xanthen-4-yl) pyridin-2(1H)-one] |
| 0.1 to 0.5 | CCNCC(Nc1ccc2c(c1)Sc1cccc(-c3cc(N4CCOCC4)cc(=O)[nH]3)c1S2)c1cccc(C)n1 (stereo not shown) [Example 1-34-1, 6-(7-((2-(ethylamino)-1-(6-methylpyridin-2-yl)ethyl)amino)thianthren-1-yl)-4-morpholinopyridin-2(1H)-one] |
| 0.1 to 0.5 | CCC(C(=O)Nc1ccc2c(c1)Sc1cccc(-c3cc(N4CCOCC4)cc(=O)[nH]3)c1S2)N1CCCC1 (stereo not shown) [Example 1-6-1, N-(6-(4-morpholino-6-oxo-1,6-dihydropyridin-2-yl)thianthren-2-yl)-2-(pyrrolidin-1-yl)butanamide] |
| 0.1 to 0.5 | O=c1cc(N2CCOCC2)cc(-c2cccc3c2Oc2ccc(NCc4ccco4)cc2C3)[nH]1 [Example 2-14-33, 6-(7-((Furan-2-ylmethyl)amino)-9H-xanthen-4-yl)-4-morpholino pyridin-2(1H)-one] |
| 0.5 to 2 | O=c1cc(N2CCOCC2)cc(-c2cccc3c2Sc2ccccc2S3)[nH]1 [Example 1-53, 4-morpholino-6-(thianthren-1-yl)pyridin-2(1H)-one] |
| 0.1 to 0.5 | CC(Nc1ccc2c(c1)Cc1cccc(-c3cc(N4CCOCC4)cc(=O)[nH]3)c1O2)c1cnc(N(C)C)cn1 (stereo not shown) [Example 2-14-53, 6-(7-((1-(5-(Dimethylamino)pyrazin-2-yl)ethyl)amino)-9H-xanthen-4-yl)-4-morpholino pyridin-2(1H)-one] |

| Compound | IC50 [µM] |
| --- | --- |
| 4-Morpholino-6-(7-((1-(5- (morpholino methyl) pyrimidin-2-yl)ethyl) amino)thianthren-1- yl)pyridin-2(1H)-one [Example 1-12-95] | 0.1 to 0.5 |
